From patent US11247976B2, “Synthetic ligands that modulate the activity of the RhlR quorum sensing receptor” (Wisconsin Alumni Research Foundation, priority 2016, dated 2022)
Marks after values point to notes of the source that are not given here.

Key:
[1] = molecular target: T1, RhlR (Pseudomonas aeruginosa, UniProt P54292); test: P. aeruginosa RhlR reporter agonism assay (PAO-JP2/prhlI-LVAgfp); assay type: cell-based; conditions: P. aeruginosa reporter compared with E. coli reporter
T1 construct: expressed in transfected cells; host or cells: E. coli JLD271 (ΔsdiA) with pJN105R2 (arabinose-induced) and pSC11-rhlI*
T1 sequence (P54292 whole entry): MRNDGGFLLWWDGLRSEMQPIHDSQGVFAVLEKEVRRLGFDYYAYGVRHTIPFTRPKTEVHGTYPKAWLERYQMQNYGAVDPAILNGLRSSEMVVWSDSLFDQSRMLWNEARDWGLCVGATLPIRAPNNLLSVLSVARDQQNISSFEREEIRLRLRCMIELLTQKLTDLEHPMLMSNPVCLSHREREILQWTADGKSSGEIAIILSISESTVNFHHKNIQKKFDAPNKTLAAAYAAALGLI
Experimental: (§1) All media and reagents for bacterial culture were purchased from commercial sources. Bacteria were cultured in Luria-Bertani broth (LB) at 37° C. with shaking at 200 rpm unless otherwise noted. The bacterial reporter strains used for this study were (i) the heterologous E. coli strain JLD271 (ΔsdiA) harboring the RhlR expression plasmid pJN105R2 and the rhlI-lacZ transcriptional fusion reporter pSC11-rhlI*, (ii) the heterologous E. coli strain JLD271 (ΔsdiA) harboring the LasR expression plasmid pJN105L and the […] transcriptional fusion reporter pSC11, and (iii) the P. aeruginosa strain PAO-JP2 (ΔlasrhlI) harboring the rhlI-gfp transcriptional fusion reporter prhlI-LVAgfp. Reporter strains JLD271/pJN105R2/pSC11-rhlI* and JLD271/pJN105L/pSC11 were grown in LB containing 100 μg/mL ampicillin and 10 μg/mL gentamicin. Freezer stocks of bacterial strains were maintained at −80° C. in 1:1 LB:50% glycerol.
To evaluate the RhlR-modulatory activities of selected compounds in P. aeruginosa, the ΔlasIrhlI strain PAO-JP2 harboring plasmid prhlI-LVAgfp was used as previously reported.^38 Briefly, a subculture was prepared by diluting an overnight culture 1:100 in fresh LB and was grown to OD600=0.3. […] Subculture was treated with 100 nM OdDHL (to induce native expression of RhlR) by adding the appropriate amount of OdDHL stock solution in DMSO. The subculture was then dispensed ([…] aliquots) into each synthetic compound-containing well of the microtiter plate.
Plates were incubated at 37° C. for 6 h, and GFP production was monitored by using a Synergy 2 plate reader (λex=500 nm, λem=540 nm; BioTek, Winooski, Vt.) and quantified with Gen5 1.05 software (BioTek). The final OD600 for each well was measured to normalize GFP production to cell density. All synthetic compounds were tested in triplicate, and three separate trials were performed with unique cultures. Agonism dose-response analyses were performed by testing compounds over a range of concentrations with the RhlR reporter.
Library compounds J18 and J24, as well as controls BHL and S4, were evaluated for potency in the native genetic background of RhlR by using the P. aeruginosa strain PAO-JP2 (ΔlasIrhlI) harboring the RhlR reporter plasmid prhlI-LVAgfp (Table 3). Because the production of RhlR is dependent on LasR (in LB medium), all assays were performed in the presence of 100 nM OdDHL, enabling immediate transcription of RhlR via LasR activation. […] All compounds also retained similar potencies when screened in the P. aeruginosa background.

[2] = molecular target: T2, LasR (Pseudomonas aeruginosa, UniProt P25084); test: Selectivity of RhlR agonism over LasR agonism (E. coli LasR reporter JLD271/pJN105L/pSC11); assay type: cell-based, P. aeruginosa; conditions: RhlR % activity divided by LasR % activity, > = negligible activity in LasR reporter
T2 construct: expressed in transfected cells; host or cells: E. coli JLD271 (ΔsdiA) with pJN105L and pSC11
T2 sequence (P25084 whole entry): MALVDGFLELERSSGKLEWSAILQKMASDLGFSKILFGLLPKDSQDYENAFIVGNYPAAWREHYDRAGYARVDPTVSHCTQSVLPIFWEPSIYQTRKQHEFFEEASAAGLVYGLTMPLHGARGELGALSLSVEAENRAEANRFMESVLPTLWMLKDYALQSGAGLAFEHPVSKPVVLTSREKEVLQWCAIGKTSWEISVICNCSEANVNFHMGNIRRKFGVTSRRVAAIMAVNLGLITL
Experimental: as §1
To evaluate the modulatory activities of library compounds on RhlR and LasR using E. coli reporters, the strains JLD271/pJN105R2/pSC11-rhlI* and JLD271/pJN105L/pSC11 were used, respectively, as previously described.^38, 51 The following modifications were used in the RhlR agonism reporter assay, non-native compounds (10 μM or 1 mM) were compared to 1 mM BHL as the positive control. Briefly, a subculture was prepared by diluting an overnight culture 1:10 with fresh media containing 100 μg/mL ampicillin and 10 μg/mL gentamicin, and was incubated until it had grown to OD600=0.45. In all assays, L-arabinose was added to a final concentration of 4 mg/mL to induce RhlR expression. For RhlR agonism assays, activities of test compounds were measured relative to 1 mM BHL (the concentration required to induce a maximal level of RhlR activity). For RhlR antagonism assays, test compounds were competed against a concentration of BHL approximately equal to its EC50 value (10 μM). Activity was measured relative to 10 μM BHL. Inhibition was calculated by subtracting 100% from the relative activity value. Thus, 0% inhibition mimics represents no competitive displacement of 10 μM BHL by a test compound. In all assays, modifications were made to the standard Miller assay protocol to accommodate the use of the chlorophenol red-β-D-galactopyranoside (CPRG) β-galactosidase substrate. After cell lysis, 150 μL of the aqueous layer was transferred from each well of a solvent-resistant 96-well microtiter plate to the wells of a new clear, flat-bottom 96-well microtiter plate. CPRG (4 mg/mL in phosphate-buffered saline) was added to each well in 25 μL volumes. Plates were incubated at 30° C. until the positive control wells developed a red color (approximately 30 min). The amount of processed CPRG substrate was assessed by measuring the absorbance of each well at 570 nm. Enzymatic activity was calculated using the following equation: adjusted Miller units=1000·Abs570/(OD600·t·V),
LasR assays were processed using the protocol for the substrate ortho-nitrophenyl-β-galactoside (ONPG) as previously described elsewhere.^53; and LasR antagonism assays were performed versus the EC50 for OdDHL (2 nM).
The selectivity of certain compounds for RhlR over LasR was measured using a LasR reporter strain (details above). Table 6 provides a comparison of selectivity of RhlR agonism over LasR agonism for exemplary compounds. Table 7 provides a comparison of selectivity of RhlR antagonism over LasR antagonism for exemplary compounds.

| Structure (SMILES) | RhlR agonist potency in words [1] | Fold selectivity of RhlR agonists over LasR agonism ([2]; tested concentration 1 mM) | Fold selectivity of RhlR agonists over LasR agonism ([2]; tested concentration 10 μm) |
| --- | --- | --- | --- |
| O=C(N[C@H]1CCCC1=O)C1CCC1 [RN12] | maintained activity between the two different reporters | 6.8 fold | >56^b fold |
| CC(C)CC(=O)N[C@H]1CCCC1=O [RN36] | not able to retain potency | >84^b fold | 105^ fold |
| CC(C)CC(=O)N[C@H]1CCSC1=O [RN37] | not able to retain potency | 13 fold | >85^b fold |
